In BindingDB's records for doi:10.1021/acs.jmedchem.5b00801 (Duquesne University, 2015):

Legend:
[1] = Binding affinity to human FRalpha expressed in Chinese hamster RT16 cells assessed as cell growth inhibition after 96 hrs by CellTiter-Blue assay
[2] = Binding affinity to human RFC expressed in Chinese hamster PC43-10 cells assessed as cell growth inhibition after 96 hrs by CellTiter-Blue assay
[3] = Binding affinity to human FRalpha expressed in Chinese hamster RT16 cells assessed as cell growth inhibition after 96 hrs by CellTiter-Blue assay in presence of 200 nM folic acid
[4] = Binding affinity to human FRbeta expressed in Chinese hamster D4 cells assessed as cell growth inhibition after 96 hrs by CellTiter-Blue assay in presence of 200 nM folic acid
[5] = Binding affinity to human PCFT expressed in Chinese hamster R2/PCFT4 cells assessed as cell growth inhibition after 96 hrs by CellTiter-Blue assay
[6] = Binding affinity to human FRbeta expressed in Chinese hamster D4 cells assessed as cell growth inhibition after 96 hrs by CellTiter-Blue assay

Compound | IC50 [1] [nM] | IC50 [2] [nM] | IC50 [3] [nM] | IC50 [4] [nM] | IC50 [5] [nM] | IC50 [6] [nM]
Nc1nc2[nH]c(CCCc3cc(C(=O)N[C@@H](CCC(=O)O)C(=O)O)cs3)cc2c(=O)[nH]1 | 0.61 | 189 | 506 | 654 | 6.5 | 0.1
Nc1nc(N)c2c(CCCc3cc(C(=O)N[C@@H](CCC(=O)O)C(=O)O)cs3)coc2n1 |  | > 1000 |  | > 1000 | > 1000 | 54
